The values that follow come from patent publication US3965139A, “2-Chloro-N-(cyanomethyl)acetanilides” (Diamond Shamrock Corporation, priority 1974, dated 1976).

In data set [1] the test system is grass species. As to the kind of experiment: Preemergence test in loam-type heavier soil, grasses overall. Format: in vivo, Johnson grass and yellow foxtail. The conditions noted are these: 1-2 lb/A; heavy soil. The source says:
(§1) This example illustrates the performance of 2-chloro-N-cyanomethyl-2',6'-diethylacetanilide in a different type soil than employed in the previous example. For this test, test plots of a loam-type, heavier soil containing 5.5% organic matter are sprayed uniformly with formulations of the test compound providing dosage rates of 4, 2, and 1 pound per acre (lb/A). The plots are then sown to cotton and soybeans and with seeds of the broadleaf, redroot pigweed, and the grasses, Johnson grass and yellow foxtail, as indicator weed plants.
(§2) Approximately three weeks after planting, the test plots are examined and percent control of plant growth is rated from 0% to 100% as previously described.

The next data set has as its system grassy-type weeds. As to the kind of experiment: Field Preemergence Test, light sandy soil, grasses overall. Format: in vivo, goosegrass and giant foxtail. An excerpt: (§3) Test plots of fertilized, light sandy soil containing 0.7% organic matter are sprayed uniformly with aqueous suspensions prepared from an emulsifiable concentrate containing 12%, by weight, of 2-chloro-N-cyanomethyl-2',6'-diethylacetanilide (the product of Example 1) diluted to provide dosage rates of the test compound corresponding to 2, 1, 0.5, and 0.25 pound per acre (lb/A). The plots are then sown with seeds of the following crop plants: sweet corn, cotton (Coker 413), and soybeans, var. Davis. Seeds of the following weed plants are planted: redroot pigweed, prickly sida, and common lambsquarter (broadleaf species); goosegrass and giant foxtail (grass species).
(§4) Three to four weeks after planting, percent control (plant kill) of the test plants is estimated, from a rating of 0 which denotes no injury to the plant up to 100 which denotes complete destruction. The % weed control exerted by 2-chloro-N-cyanomethyl-2',6'-diethylacetanilide is as follows: […]

In the next data set the test system is Pigweed. As to the kind of experiment: Preemergence test in loam-type heavier soil, weed. The conditions noted are these: about three weeks after planting. The data set is classed as in vivo, redroot pigweed.
Source text: as §1, §2

Data set [2] concerns broadleaf species. As to the kind of experiment: Preemergence test in loam-type heavier soil, broadleaf species. The data set is classed as in vivo, redroot pigweed. Conditions: 1-2 lb/A; heavy soil.
Source text: as §1, §2

In a further data set the test system is Yellow Foxtail. As to the kind of experiment: Preemergence test in loam-type heavier soil, weed. Format: in vivo. The conditions noted are these: about three weeks after planting.
Source text: as §1, §2

The test system of data set [3] is grass species. As to the kind of experiment: Greenhouse Preemergence Herbicide Test, grass species. The data set is classed as in vivo. The conditions noted are these: two weeks after treatment. Here is the method:
To illustrate the preemergence herbicidal efficiency of the N-(cyanomethyl)acetanilides of this invention, test formulations are prepared of representative compounds by mixing 20 ml of an acetone solution containing 0.125 g of the test compound with 20 ml of water containing 0.01 g of Triton X-155 surfactant. The resultant formulations contain 3125 ppm of test compound, 50% by volume of acetone and 0.025% by weight of surfactant. Appropriate lower concentrations are obtained by diluting this formulation with surfactant-acetone solution so that the concentration of adjuvants is maintained at the original levels.
Seeds of three broadleaf and three grass species are planted in soil contained in 10 × 8 × 3 inch aluminum pans filled with 1.5 inches of composted soil. The broadleaf species are pigweed (Amaranthus retroflexus), a velvetleaf (Abutilon theophrasti), and morningglory (Ipomea coccinea); the grasses are red millet (Panicum milliacem), greenfoxtail (Setaria viridis) and Japanese millet (Echinochloa frumentacea).
The pans are then sprayed so that the soil surface is uniformly covered with dilutions of the stock formulation providing dosage rates of the test compounds corresponding to 8, 4, 2, 1, 0.5, and 0.25 lb/A. Two weeks after treatment, percent control (plant kill) at each dosage rate is estimated. The lowest concentration of each compound (lb/A) found to provide 50% or greater control of the grass weeds is as follows: […]

Data set [4] concerns Soybeans. As to the kind of experiment: Field Preemergence Test, phytotoxic effects on crop. Format: in vivo, var. Davis. The conditions noted are these: light sandy soil; for % Crop Kill, Soybeans: 3-4 weeks after planting.
Source text: as §3
(§5) Three to four weeks after planting, percent control (plant kill) of the test plants is estimated, from a rating of 0 which denotes no injury to the plant up to 100 which denotes complete destruction. The % weed control exerted by 2-chloro-N-cyanomethyl-2',6'-diethylacetanilide is as follows:
(§6) Phytotoxic effects observed on the crop species is estimated with results as follows: […]

A further data set concerns Cotton. Described as above. The data set is classed as in vivo, cotton (Coker 413). Conditions: light sandy soil; for % Crop Kill, Cotton: 3-4 weeks after planting.
Source text: as §3, §5, §6

Data set [5] has as its system Soybeans. As to the kind of experiment: Preemergence test in loam-type heavier soil, crop. The conditions noted are these: for % Control of Plant Growth, Soybeans: about three weeks after planting, loam-type heavier soil. Format: in vivo.
Source text: as §1, §2

The test system of a further data set is Johnsongrass. As to the kind of experiment: Preemergence test in loam-type heavier soil, weed. Format: in vivo, Johnson grass. Conditions: about three weeks after planting.
Source text: as §1, §2

The subject of data set [6] is Corn. As to the kind of experiment: Field Preemergence Test, phytotoxic effects on crop. The data set is classed as in vivo, sweet corn. Conditions: light sandy soil; for % Crop Kill, Corn: 3-4 weeks after planting.
Source text: as §3, §5, §6

The next data set relates to Lambsquarter. As to the kind of experiment: Field Preemergence Test, light sandy soil. The conditions noted are these: 3-4 weeks after planting. The data set is classed as in vivo, common lambsquarter.
Source text: as §3, §4

The subject of data set [7] is broadleaf species. As to the kind of experiment: Field Preemergence Test, light sandy soil, broadleaf species overall. The data set is classed as in vivo, redroot pigweed, prickly sida, common lambsquarter.
Source text: as §3, §4

The next data set relates to Prickly Sida. As to the kind of experiment: Field Preemergence Test, light sandy soil. Conditions: 3-4 weeks after planting. Format: in vivo.
Source text: as §3, §4

The test system of a further data set is Goosegrass. As to the kind of experiment: Field Preemergence Test, light sandy soil. The data set is classed as in vivo. The conditions noted are these: 3-4 weeks after planting.
Source text: as §3, §4

Another data set concerns Redroot Pigweed. As to the kind of experiment: Field Preemergence Test, light sandy soil. Format: in vivo. The conditions noted are these: 3-4 weeks after planting.
Source text: as §3, §4

A further data set concerns Giant Foxtail. As to the kind of experiment: Field Preemergence Test, light sandy soil. Conditions: 3-4 weeks after planting. The data set is classed as in vivo.
Source text: as §3, §4

The subject of data set [8] is Corn. As to the kind of experiment: Preemergence test in loam-type heavier soil, crop. The data set is classed as in vivo. Conditions: for % Control of Plant Growth, Corn: about three weeks after planting, loam-type heavier soil.

`CCc1cccc(CC)c1N(CC#N)C(=O)CCl` [Example 1, 2-chloro-N-cyanomethyl-2',6'-diethylacetanilide]: the “selectivity for controlling the grass species” value in the data set with grass species [1] is on record as “selective for controlling the grass species”. Further, the “control of grassy-type weeds” value with grassy-type weeds is recorded as “good control”. Besides, the entries for the “% Control of Plant Growth, Pigweed” value in the data set with Pigweed (1 lb/A), with Pigweed (2 lb/A) and with Pigweed (4 lb/A) were 0%, 0% and 40%, respectively. The “activity for controlling the broadleaf species” value in the data set with broadleaf species [2] is recorded as “no activity”. For the same compound, the “% Control of Plant Growth, Yellow Foxtail” value with Yellow Foxtail (1 lb/A) stood at 90%; with Yellow Foxtail (2 lb/A) it was 95%; in the data set with Yellow Foxtail (4 lb/A), 95%. Also, in the data set with grass species [3], the “Minimum Dosage Providing at Least 50% Preemergence Control of Grass Species” value is on record as 0.50 lb/A. The “% Crop Kill, Soybeans” value with Soybeans [4] (1 lb/A) and in the data set on Soybeans [4] (2 lb/A) was 0% throughout. Also, the tolerance of soybeans result in the data set on Soybeans [4] (2 lb/A) is on record as “tolerant”. Besides, the “% Crop Kill, Cotton” value in the data set on Cotton (1 lb/A) worked out at 0%; in the data set with Cotton (2 lb/A), 3%. In addition, the “phytotoxicity effects on cotton” value with Cotton (2 lb/A) was “minimal phytotoxicity effects”. For the same compound, the “injury to soybean stand” value in the data set on Soybeans [5] (1-2 lb/A, heavy soil) is reported as “noninjurious”. In addition, the results for the “% Control of Plant Growth, Soybeans” value with Soybeans [5] (1 lb/A), with Soybeans [5] (2 lb/A) and in the data set with Soybeans [5] (4 lb/A) were 0%, 0% and 5%, respectively. For the same compound, the “% Control of Plant Growth, Johnsongrass” value in the data set on Johnsongrass (1 lb/A) turned out to be 60%; with Johnsongrass (2 lb/A) it was 80%; in the data set on Johnsongrass (4 lb/A), 80%. The “% Crop Kill, Corn” value in the data set on Corn [6] (1 lb/A) and with Corn [6] (2 lb/A) was 0% throughout. The tolerance of corn result in the data set with Corn [6] (2 lb/A) is given as “tolerant”. Besides, the “% Weed Control, Lambsquarter” value with Lambsquarter (0.25 lb/A) is reported as 0%; in the data set with Lambsquarter (0.5 lb/A) it was 20%; with Lambsquarter (1 lb/A), 60%; in the data set on Lambsquarter (2 lb/A), 88%. Moreover, the “broadleaf weed control in a light, sandy soil” value with broadleaf species [7] (1-2 lb/A) is on record as “good broadleaf weed control”. Further, the “herbicidal activity against two of the broadleaf species” value in the data set on broadleaf species [7] (2 lb/A) was “significant herbicidal activity”. The “% Weed Control, Prickly Sida” value is 0% with Prickly Sida (0.25 lb/A), 0% in the data set on Prickly Sida (0.5 lb/A), 12% in the data set on Prickly Sida (1 lb/A) and 40% in the data set with Prickly Sida (2 lb/A). Moreover, the “% Weed Control, Goosegrass” value in the data set with Goosegrass (0.25 lb/A) was determined as 63%; in the data set with Goosegrass (0.5 lb/A), 88%; in the data set with Goosegrass (1 lb/A), 95%; with Goosegrass (2 lb/A), 99%. Besides, the “% Weed Control, Redroot Pigweed” value was found to be 0% with Redroot Pigweed (0.25 lb/A), 33% in the data set on Redroot Pigweed (0.5 lb/A), 55% in the data set on Redroot Pigweed (1 lb/A) and 90% with Redroot Pigweed (2 lb/A). The “% Weed Control, Giant Foxtail” value in the data set on Giant Foxtail (0.25 lb/A) came out at 0%; in the data set on Giant Foxtail (0.5 lb/A), 27%; in the data set with Giant Foxtail (1 lb/A) it was 65%; in the data set on Giant Foxtail (2 lb/A), 82%. For the same compound, in the data set on Corn [8] (1-2 lb/A, heavy soil), the “injury to corn stand” value was “noninjurious”. Also, the “% Control of Plant Growth, Corn” value with Corn [8] (1 lb/A) is recorded as 0%; with Corn [8] (2 lb/A) it was 0%; with Corn [8] (4 lb/A) it was 10%.

Regarding `Cc1cccc(N(CC#N)C(=O)CCl)c1` [Example 8, 2-chloro-N-cyanomethyl-3'-methylacetanilide], the “Minimum Dosage Providing at Least 50% Preemergence Control of Grass Species” value with grass species [3] stood at 0.50 lb/A.

As for `N#CCN(C(=O)CCl)c1ccccc1Cl` [Example 9, 2,2'-dichloro-N-(cyanomethyl)acetanilide], in the data set on grass species [3], the “Minimum Dosage Providing at Least 50% Preemergence Control of Grass Species” value is 0.50 lb/A.

On to `Cc1cccc(C)c1N(CC#N)C(=O)CCl` [Example 10, 2-chloro-N-cyanomethyl-2',6'-dimethylacetanilide], for which the “Minimum Dosage Providing at Least 50% Preemergence Control of Grass Species” value with grass species [3] stood at 0.25 lb/A.

With `CC(C)c1ccccc1N(CC#N)C(=O)CCl` [Example 11, 2-chloro-N-cyanomethyl-2'-isopropylacetanilide], in the data set with grass species [3], the “Minimum Dosage Providing at Least 50% Preemergence Control of Grass Species” value amounted to 1.00 lb/A.

On to `CC(C)c1cccc(C(C)C)c1N(CC#N)C(=O)CCl` [Example 12, 2-chloro-N-cyanomethyl-2',6'-diisopropylacetanilide], for which, in the data set with grass species [3], the “Minimum Dosage Providing at Least 50% Preemergence Control of Grass Species” value turned out to be 0.50 lb/A.

Consider `COc1ccccc1N(CC#N)C(=O)CCl` [Example 13, 2-chloro-N-cyanomethyl-2'-methoxyacetanilide], for which, in the data set on grass species [3], the “Minimum Dosage Providing at Least 50% Preemergence Control of Grass Species” value was 0.50 lb/A.

Consider `CCc1ccccc1N(CC#N)C(=O)CCl` [Example 14, 2-chloro-N-cyanomethyl-2'-ethylacetanilide], for which, in the data set with grass species [3], the “Minimum Dosage Providing at Least 50% Preemergence Control of Grass Species” value turned out to be 0.50 lb/A.

As to `N#CCN(C(=O)CCl)c1ccccc1Br` [Example 15, 2'-bromo-2-chloro-N-(cyanomethyl)acetanilide], in the data set on grass species [3], the “Minimum Dosage Providing at Least 50% Preemergence Control of Grass Species” value is on record as 1.00 lb/A.
